Results: ChEMBL document CHEMBL3596105, “Phospholipid derivatives of cladribine and fludarabine: synthesis and biological properties” (Bioorg Med Chem, 2015)

What was measured:
K562 [1] = test: Antiproliferative activity against human K562 cells assessed as cell growth inhibition after 48 hrs by MTT assay; assay type: functional, cell-based; conditions: K562, 48 h
MCF7 [2] = test: Antiproliferative activity against human MCF7 cells assessed as cell growth inhibition after 48 hrs by MTT assay; assay type: functional, cell-based; conditions: MCF7, 48 h
[3] = Antiproliferative activity against human MOLT3 cells assessed as cell growth inhibition after 48 hrs by MTT assay; assay type: functional, cell-based; conditions: MOLT-3, 48 h
Rattus norvegicus [4] = test: Prodrug conversion in Wistar rat assessed as slow F-ara-A release into bloodstream at 77 mg/kg, ig administered as single dose by HPLC analysis; assay type: ADME, organism-based; conditions: in vivo, po
[5] = Antiproliferative activity against human KG1 cells assessed as cell growth inhibition after 72 hrs by MTT assay; assay type: functional, cell-based; conditions: KG-1, 72 h
ZR-75-1 [6] = test: Antiproliferative activity against human ZR-75-1 cells assessed as cell growth inhibition after 48 hrs by MTT assay; assay type: functional, cell-based; conditions: ZR-75-1, 48 h
HL-60 [7] = test: Antiproliferative activity against human HL60 cells assessed as cell growth inhibition after 48 hrs by MTT assay; assay type: functional, cell-based; conditions: HL-60, 48 h
[8] = Antiproliferative activity against human KG1 cells assessed as cell growth inhibition after 48 hrs by MTT assay; assay type: functional, cell-based; conditions: KG-1, 48 h
Rattus norvegicus [9] = test: Prodrug conversion in Wistar rat assessed as prolonged serum circulation of liberated F-ara-A at 77 mg/kg, ig administered as single dose by HPLC analysis; assay type: ADME, organism-based; conditions: in vivo, po
Raji = test: Antiproliferative activity against human Raji cells assessed as cell growth inhibition after 48 hrs by MTT assay; assay type: functional, cell-based
[10] = Antiproliferative activity against human SK-UT-1B cells assessed as cell growth inhibition after 48 hrs by MTT assay; assay type: functional, cell-based; conditions: Skut1B
[11] = Antiproliferative activity against human M-HeLa cells assessed as cell growth inhibition after 48 hrs by MTT assay; assay type: functional, cell-based
Rattus norvegicus [12] = test: Prodrug conversion in Wistar rat assessed as smooth increase in F-ara-A concentration in serum at 77 mg/kg, ig administered as single dose by HPLC analysis; assay type: ADME, organism-based; conditions: in vivo, po
[13] = Antiproliferative activity against human SKHEP1 cells assessed as cell growth inhibition after 48 hrs by MTT assay; assay type: functional, cell-based; conditions: SK-HEP1, 48 h
[14] = Antiproliferative activity against human RPMI8226 cells assessed as cell growth inhibition after 48 hrs by MTT assay; assay type: functional, cell-based; conditions: RPMI-8226, 48 h
[15] = Antiproliferative activity against human SK-UT-1B cells assessed as cell growth inhibition after 72 hrs by MTT assay; assay type: functional, cell-based; conditions: Skut1B
[16] = Antiproliferative activity against human M-HeLa cells assessed as cell growth inhibition after 72 hrs by MTT assay; assay type: functional, cell-based
Rattus norvegicus [17] = test: Prodrug conversion in Wistar rat assessed as slow F-ara-A release into bloodstream at 72 mg/kg, ig administered as single dose by HPLC analysis; assay type: ADME, organism-based; conditions: in vivo, po
K562 [18] = test: Antiproliferative activity against human K562 cells assessed as cell growth inhibition after 72 hrs by MTT assay; assay type: functional, cell-based; conditions: K562, 72 h
ZR-75-1 [19] = test: Antiproliferative activity against human ZR-75-1 cells assessed as cell growth inhibition after 72 hrs by MTT assay; assay type: functional, cell-based; conditions: ZR-75-1, 72 h
Rattus norvegicus [20] = test: Prodrug conversion in Wistar rat assessed as smooth increase in F-ara-A concentration in serum at 72 mg/kg, ig administered as single dose by HPLC analysis; assay type: ADME, organism-based; conditions: in vivo, po
MCF7 [21] = test: Antiproliferative activity against human MCF7 cells assessed as cell growth inhibition after 72 hrs by MTT assay; assay type: functional, cell-based; conditions: MCF7, 72 h
HL-60 [22] = test: Antiproliferative activity against human HL60 cells assessed as cell growth inhibition after 72 hrs by MTT assay; assay type: functional, cell-based; conditions: HL-60, 72 h
Rattus norvegicus [23] = test: Prodrug conversion in Wistar rat assessed as prolonged serum circulation of liberated F-ara-A at 72 mg/kg, ig administered as single dose by HPLC analysis; assay type: ADME, organism-based; conditions: in vivo, po
Mus musculus [24] = test: Apparent half-life in ICR mouse assessed as F-ara-A content at 120.4 mg/kg, ig administered as single dose by HPLC analysis; assay type: ADME, organism-based; conditions: in vivo, po
Mus musculus [25] = test: Cmin in ICR mouse assessed as F-ara-A concentration at 120.4 mg/kg, ig administered as single dose after 24 hrs by HPLC analysis; assay type: ADME, organism-based; conditions: in vivo, po
Mus musculus [26] = test: Tmax in ICR mouse assessed as F-ara-A concentration at 120.4 mg/kg, ig administered as single dose by HPLC analysis; assay type: ADME, organism-based; conditions: in vivo, po
Mus musculus [27] = test: Cmax in ICR mouse assessed as F-ara-A concentration at 120.4 mg/kg, ig administered as single dose by HPLC analysis; assay type: ADME, organism-based; set-up: dose 120.4 mg/kg, route intragastric; conditions: in vivo, po
Mus musculus [28] = test: Apparent half-life in ICR mouse assessed as F-ara-A content at 50 mg/kg, ig administered as single dose by HPLC analysis; assay type: ADME, organism-based; conditions: in vivo, po
Mus musculus [29] = test: Cmax in ICR mouse assessed as F-ara-A concentration at 50 mg/kg, ig administered as single dose by HPLC analysis; assay type: ADME, organism-based; set-up: dose 50 mg/kg, route intragastric; conditions: in vivo, po
Mus musculus [30] = test: Cmin in ICR mouse assessed as F-ara-A concentration at 50 mg/kg, ig administered as single dose after 24 hrs by HPLC analysis; assay type: ADME, organism-based; conditions: in vivo, po
Mus musculus [31] = test: Tmax in ICR mouse assessed as F-ara-A concentration at 50 mg/kg, ig administered as single dose by HPLC analysis; assay type: ADME, organism-based; conditions: in vivo, po

SMILES | IC50 (K562 [1]) | IC50 (MCF7 [2]) | IC50 (HL-60 [7]) | IC50 (Raji) | IC50 [3] | IC50 [5] | IC50 (ZR-75-1 [6]) | IC50 [8] | IC50 [10] | IC50 [11] | further results
CCCCCCCCCCCCCCCC(=O)OCC(COP(=O)(O)OC[C@H]1O[C@@H](n2cnc3c(N)nc(Cl)nc32)C[C@@H]1O)OC(=O)CCCCCCCCCCCCCCC (some centres not stated) | > 100 µM | > 100 µM | – | – | > 100 µM | – | – | – | – | – | –
CCCCCCCCCCCCCC(=O)OCC(COC(=O)CCCCCCCCCCCCC)OP(=O)(O)OC[C@H]1O[C@@H](n2cnc3c(N)nc(Cl)nc32)C[C@@H]1O | > 100 µM | > 100 µM | – | – | > 100 µM | – | – | – | – | – | –
CCCCCCCCCCCCCCCC(=O)OCC(COP(=O)([O-])OC[C@H]1O[C@@H](n2cnc3c(N)nc(F)nc32)[C@@H](O)[C@@H]1O)OC(=O)CCCCCCCCCCCCCCC.[Na+] (some centres not stated) | > 100 µM | > 100 µM | > 100 µM | > 100 µM | > 100 µM | 75 µM | > 100 µM | > 100 µM | > 100 µM | > 100 µM | Drug metabolism (Rattus norvegicus [4]): metabolite_detected; Drug metabolism (Rattus norvegicus [9]): metabolite_detected; Drug metabolism (Rattus norvegicus [12]): metabolite_detected
CCCCCCCCCCCCCCCC(=O)OCC(COC(=O)CCCCCCCCCCCCCCC)OP(=O)(O)OC[C@H]1O[C@@H](n2cnc3c(N)nc(Cl)nc32)C[C@@H]1O | > 100 µM | > 100 µM | – | – | > 100 µM | – | – | – | – | – | –
CCCCCCCCCCCCCCCC(=O)OCC(COC(=O)CCCCCCCCCCCCCCC)OP(=O)([O-])OC[C@H]1O[C@@H](n2cnc3c(N)nc(F)nc32)[C@@H](O)[C@@H]1O.[Na+] | > 100 µM | > 100 µM | > 100 µM | > 100 µM | > 100 µM | – | > 100 µM | > 100 µM | > 100 µM | > 100 µM | Drug metabolism (Rattus norvegicus [4]): metabolite_detected; Drug metabolism (Rattus norvegicus [9]): metabolite_detected; Drug metabolism (Rattus norvegicus [12]): metabolite_detected

Stronger by IC50 (K562 [1]), values ahead:

IC50 (K562 [1]) | IC50 (MCF7 [2]) | IC50 (HL-60 [7]) | IC50 (Raji) | SMILES | IC50 [3] | IC50 [5] | IC50 (ZR-75-1 [6]) | IC50 [8] | IC50 [10] | IC50 [11] | further results
75 µM | > 100 µM | 80 µM | > 100 µM | CCCCCCCCCCCCCC(=O)OCC(COC(=O)CCCCCCCCCCCCC)OP(=O)([O-])OC[C@H]1O[C@@H](n2cnc3c(N)nc(F)nc32)[C@@H](O)[C@@H]1O.[Na+] | > 100 µM | 35 µM | > 100 µM | > 100 µM | > 100 µM | > 100 µM | IC50 [15]: 55 µM; IC50 [16]: 45 µM; Drug metabolism (Rattus norvegicus [17]): metabolite_detected; IC50 (K562 [18]): > 100 µM; IC50 (ZR-75-1 [19]): 75 µM; Drug metabolism (Rattus norvegicus [20]): metabolite_detected; IC50 (MCF7 [21]): 45 µM; IC50 (HL-60 [22]): 65 µM; Drug metabolism (Rattus norvegicus [23]): metabolite_detected
50 µM | > 100 µM | – | – | CCCCCCCCCCCCCC(=O)OCC(COP(=O)(O)OC[C@H]1O[C@@H](n2cnc3c(N)nc(Cl)nc32)C[C@@H]1O)OC(=O)CCCCCCCCCCCCC (some centres not stated) | 8 µM | – | > 100 µM | 17 µM | > 100 µM | – | IC50 [13]: > 100 µM; IC50 [14]: > 100 µM
45 µM | 45 µM | 30 µM | > 100 µM | CCCCCCCCCCCCCC(=O)OCC(COP(=O)([O-])OC[C@H]1O[C@@H](n2cnc3c(N)nc(F)nc32)[C@@H](O)[C@@H]1O)OC(=O)CCCCCCCCCCCCC.[Na+] (some centres not stated) | > 100 µM | 9 µM | > 100 µM | 55 µM | > 100 µM | > 100 µM | Drug metabolism (Rattus norvegicus [17]): metabolite_detected; IC50 (K562 [18]): > 100 µM; Drug metabolism (Rattus norvegicus [20]): metabolite_detected; t1/2(app) (Mus musculus [24]): 14.2 h; Cmin (Mus musculus [25]): 199 ng/mL; IC50 (MCF7 [21]): 18 µM; Tmax (Mus musculus [26]): 2.8 h; IC50 (HL-60 [22]): 16 µM; Cmax (Mus musculus [27]): 1613 ng/mL; Drug metabolism (Rattus norvegicus [23]): metabolite_detected
10 µM | 45 µM | – | – | Nc1nc(Cl)nc2c1ncn2[C@H]1C[C@H](O)[C@@H](CO)O1 [CLADRIBINE] | 2.3 µM | – | > 100 µM | 0.2 µM | 1 µM | – | IC50 [13]: 4 µM; IC50 [14]: 6 µM
0.4 µM | 0.13 µM | 0.09 µM | 0.4 µM | Nc1nc(F)nc2c1ncn2[C@@H]1O[C@H](COP(=O)(O)O)[C@@H](O)[C@@H]1O [FLUDARABINE PHOSPHATE] | 0.95 µM | – | 0.6 µM | 0.15 µM | 6 µM | 2 µM | t1/2(app) (Mus musculus [28]): 1.5 h; Cmax (Mus musculus [29]): 8989 ng/mL; Cmin (Mus musculus [30]): 13 ng/mL; Tmax (Mus musculus [31]): 0.9 h
